Source: PubChem BioAssay (NCI)
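Five concentrations, 48 hours, 96-well plates. GI50: concentration for 50% inhibition of growth. TGI denotes the concentration required for complete inhibition of growth.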

Legend:
Experiment in all cases: NCI tumour cell line growth inhibition, 48 h
A549 NSCLC = system: A549 NSCLC
HCT-116 colon = system: HCT-116 colon
HOP-92 NSCLC = system: HOP-92 NSCLC
IGROV1 ovarian = system: IGROV1 ovarian
MDA-MB-231 breast = system: MDA-MB-231 breast
SF-539 CNS = system: SF-539 CNS
SK-MEL-2 melanoma = system: SK-MEL-2 melanoma
SK-MEL-28 melanoma = system: SK-MEL-28 melanoma
SNB-75 CNS = system: SNB-75 CNS
A498 renal = system: A498 renal

CC(=O)c1ccc(Nc2cc(-n3ccnc3)nc3ccccc23)cc1
GI50 (A549 NSCLC): 35.3 µM | TGI (A549 NSCLC): > 100 µM | GI50 (HCT-116 colon): 30.5 µM | TGI (HCT-116 colon): > 100 µM | GI50 (HOP-92 NSCLC): 4.15 µM | TGI (HOP-92 NSCLC): 29.4 µM | GI50 (IGROV1 ovarian): > 100 µM | TGI (IGROV1 ovarian): > 100 µM | GI50 (MDA-MB-231 breast): 3.64 µM | TGI (MDA-MB-231 breast): 18.1 µM | GI50 (SF-539 CNS): 40.6 µM | TGI (SF-539 CNS): 88.7 µM | GI50 (SK-MEL-2 melanoma): > 100 µM | TGI (SK-MEL-2 melanoma): > 100 µM | GI50 (SK-MEL-28 melanoma): 29.8 µM | TGI (SK-MEL-28 melanoma): > 100 µM | GI50 (SNB-75 CNS): 38.2 µM | TGI (SNB-75 CNS): > 100 µM

Nc1ccn(C=C=CCO)c(=O)n1
GI50 (A549 NSCLC): > 1000 µM | TGI (A549 NSCLC): > 1000 µM | GI50 (HCT-116 colon): > 1000 µM | TGI (HCT-116 colon): > 1000 µM | GI50 (HOP-92 NSCLC): > 1000 µM | TGI (HOP-92 NSCLC): > 1000 µM | GI50 (IGROV1 ovarian): > 1000 µM | TGI (IGROV1 ovarian): > 1000 µM | GI50 (MDA-MB-231 breast): > 1000 µM | TGI (MDA-MB-231 breast): > 1000 µM | GI50 (SF-539 CNS): > 1000 µM | TGI (SF-539 CNS): > 1000 µM | GI50 (SK-MEL-2 melanoma): > 1000 µM | TGI (SK-MEL-2 melanoma): > 1000 µM | GI50 (SNB-75 CNS): > 1000 µM | TGI (SNB-75 CNS): > 1000 µM

COc1cc2cc(Oc3ccc(NC(=O)Nc4cccc(C(F)(F)F)c4)cc3)c(C)nc2cc1OCCN1CCCCC1
GI50 (A498 renal): 1.45 µM | TGI (A498 renal): 2.9 µM | GI50 (HOP-92 NSCLC): 1.08 µM | TGI (HOP-92 NSCLC): 2.34 µM | GI50 (MDA-MB-231 breast): 1.36 µM | TGI (MDA-MB-231 breast): 2.73 µM | GI50 (SF-539 CNS): 1.67 µM | TGI (SF-539 CNS): 3.05 µM | GI50 (SK-MEL-28 melanoma): 1.76 µM | TGI (SK-MEL-28 melanoma): 3.14 µM | GI50 (SNB-75 CNS): 1.15 µM | TGI (SNB-75 CNS): 2.37 µM

Cc1ccc2c(c1)NC(c1ccc(C(=O)O)cc1)c1cccn1-2 (centres undefined)
TGI (A498 renal): 64.9 µM | TGI (A549 NSCLC): > 100 µM | TGI (HCT-116 colon): > 100 µM | TGI (MDA-MB-231 breast): > 100 µM | TGI (SF-539 CNS): > 100 µM | TGI (SK-MEL-2 melanoma): > 100 µM | TGI (SK-MEL-28 melanoma): > 100 µM | TGI (SNB-75 CNS): 39.6 µM

CC1(C)N=C(N)N=C(N)N1c1cccc(/C=C/C=C/c2cccc([N+](=O)[O-])c2)c1
GI50 (A498 renal): 13 µM | TGI (A498 renal): 39.3 µM | GI50 (A549 NSCLC): 3.9 µM | TGI (A549 NSCLC): 24 µM | GI50 (HCT-116 colon): 3.16 µM | TGI (HCT-116 colon): 30.4 µM | GI50 (IGROV1 ovarian): 1.18 µM | TGI (IGROV1 ovarian): 13.7 µM | GI50 (MDA-MB-231 breast): 10.3 µM | TGI (MDA-MB-231 breast): 24.4 µM | GI50 (SF-539 CNS): 4.43 µM | TGI (SF-539 CNS): 17.6 µM | GI50 (SK-MEL-2 melanoma): 13.4 µM | TGI (SK-MEL-2 melanoma): 28.5 µM | GI50 (SK-MEL-28 melanoma): 7.1 µM | TGI (SK-MEL-28 melanoma): 20.5 µM | GI50 (SNB-75 CNS): 6.88 µM | TGI (SNB-75 CNS): 21.5 µM

CCOC(=O)c1cnc(SCc2ccc(Cl)c(Cl)c2)nc1N1CC1
GI50 (A498 renal): 2.82 µM | TGI (A498 renal): 14.4 µM | GI50 (A549 NSCLC): 3.72 µM | TGI (A549 NSCLC): 16.1 µM | GI50 (HCT-116 colon): 0.9 µM | TGI (HCT-116 colon): 10.9 µM | GI50 (IGROV1 ovarian): 2.2 µM | GI50 (MDA-MB-231 breast): 6.12 µM | TGI (MDA-MB-231 breast): 27.2 µM | GI50 (SF-539 CNS): 3.3 µM | TGI (SF-539 CNS): 12.3 µM | GI50 (SK-MEL-2 melanoma): 3.26 µM | TGI (SK-MEL-2 melanoma): 11.1 µM | GI50 (SK-MEL-28 melanoma): 5.88 µM | TGI (SK-MEL-28 melanoma): 19.9 µM | GI50 (SNB-75 CNS): 2.05 µM | TGI (SNB-75 CNS): 6.09 µM

COc1ccc(N(C)c2nc(C)nc3ccccc23)cc1
GI50 (A498 renal): < 0.01 µM | TGI (A498 renal): < 0.01 µM | GI50 (A549 NSCLC): < 0.01 µM | TGI (A549 NSCLC): > 100 µM | GI50 (HCT-116 colon): < 0.01 µM | TGI (HCT-116 colon): > 36 µM | GI50 (HOP-92 NSCLC): < 0.01 µM | TGI (HOP-92 NSCLC): 4.94 µM | GI50 (IGROV1 ovarian): < 0.01 µM | TGI (IGROV1 ovarian): > 100 µM | GI50 (MDA-MB-231 breast): < 0.01 µM | TGI (MDA-MB-231 breast): > 100 µM | GI50 (SF-539 CNS): < 0.01 µM | TGI (SF-539 CNS): > 100 µM | GI50 (SK-MEL-28 melanoma): 19.3 µM | TGI (SK-MEL-28 melanoma): > 100 µM | GI50 (SNB-75 CNS): < 0.01 µM | TGI (SNB-75 CNS): > 100 µM

Cc1ccc(S(=O)(=O)N/N=C/C(Br)=C(/Br)C(=O)O)cc1
TGI (A498 renal): 32.3 µM | TGI (A549 NSCLC): 50.2 µM | TGI (HOP-92 NSCLC): 39.6 µM | TGI (IGROV1 ovarian): 34.7 µM | TGI (MDA-MB-231 breast): 36 µM | TGI (SF-539 CNS): 14.5 µM | TGI (SK-MEL-2 melanoma): 35.1 µM | TGI (SK-MEL-28 melanoma): 9.65 µM | TGI (SNB-75 CNS): 41 µM

COC(=O)Nc1nc2ccc(C(=O)c3ccc[nH]3)cc2[nH]1
TGI (A498 renal): > 100 µM | TGI (A549 NSCLC): > 100 µM | TGI (HCT-116 colon): > 100 µM | TGI (IGROV1 ovarian): > 100 µM | TGI (MDA-MB-231 breast): > 100 µM | TGI (SF-539 CNS): 42.3 µM | TGI (SK-MEL-2 melanoma): > 100 µM | TGI (SK-MEL-28 melanoma): > 100 µM | TGI (SNB-75 CNS): 1.69 µM

O=C(CCCc1c[nH]c2ccccc12)NC1CC(=O)c2c(Br)sc(Br)c21 (centres undefined)
GI50 (A498 renal): 24.2 µM | TGI (A498 renal): 40.5 µM | GI50 (A549 NSCLC): 33.4 µM | TGI (A549 NSCLC): > 100 µM | GI50 (HOP-92 NSCLC): 17.9 µM | TGI (HOP-92 NSCLC): 40 µM | GI50 (IGROV1 ovarian): 9.05 µM | TGI (IGROV1 ovarian): 40.5 µM | GI50 (MDA-MB-231 breast): 16.5 µM | TGI (MDA-MB-231 breast): 32.1 µM | GI50 (SF-539 CNS): 23.1 µM | TGI (SF-539 CNS): 50.1 µM | GI50 (SK-MEL-2 melanoma): 30.5 µM | TGI (SK-MEL-2 melanoma): > 100 µM | GI50 (SK-MEL-28 melanoma): 2.77 µM | TGI (SK-MEL-28 melanoma): 9.02 µM | GI50 (SNB-75 CNS): 13.9 µM | TGI (SNB-75 CNS): 27.7 µM

O=C1c2cc3c(cc2-c2c1c1cc(Cl)c(Cl)cc1c(=O)n2CCCn1ccnc1)OCO3
GI50 (A498 renal): 0.0107 µM | TGI (A498 renal): 0.0638 µM | GI50 (A549 NSCLC): < 0.01 µM | TGI (A549 NSCLC): > 100 µM | GI50 (HCT-116 colon): < 0.01 µM | TGI (HCT-116 colon): 17.6 µM | GI50 (IGROV1 ovarian): 0.0295 µM | TGI (IGROV1 ovarian): > 100 µM | GI50 (MDA-MB-231 breast): 0.0996 µM | TGI (MDA-MB-231 breast): > 100 µM | GI50 (SF-539 CNS): < 0.01 µM | TGI (SF-539 CNS): 0.0206 µM | GI50 (SK-MEL-2 melanoma): 0.222 µM | TGI (SK-MEL-2 melanoma): 26.7 µM | GI50 (SK-MEL-28 melanoma): 0.0665 µM | TGI (SK-MEL-28 melanoma): > 100 µM | GI50 (SNB-75 CNS): < 0.01 µM | TGI (SNB-75 CNS): 17.1 µM

Cc1cc(NC(=O)C2c3ccccc3C(=O)N(CC(C)C)C2c2cccs2)no1 (centres undefined)
GI50 (A549 NSCLC): > 100 µM | TGI (A549 NSCLC): > 100 µM | GI50 (HCT-116 colon): 49.1 µM | TGI (HCT-116 colon): > 100 µM | GI50 (HOP-92 NSCLC): 18.7 µM | TGI (HOP-92 NSCLC): 78.2 µM | GI50 (IGROV1 ovarian): > 100 µM | TGI (IGROV1 ovarian): > 100 µM | GI50 (MDA-MB-231 breast): 21.2 µM | TGI (MDA-MB-231 breast): 93.4 µM | GI50 (SF-539 CNS): > 100 µM | TGI (SF-539 CNS): > 100 µM | GI50 (SK-MEL-2 melanoma): > 100 µM | TGI (SK-MEL-2 melanoma): > 100 µM | GI50 (SK-MEL-28 melanoma): > 100 µM | TGI (SK-MEL-28 melanoma): > 100 µM | GI50 (SNB-75 CNS): 10.5 µM | TGI (SNB-75 CNS): > 100 µM
